Legend:
[1] = molecular target: T1, serotonin (5-HT) 2C receptor (Rattus norvegicus, UniProt P08909); conditions: anesthetized rats; cited from earlier work
T1 construct: increased genioglossus activity and reduced upper airway collapsibility in anesthetized rats; from tissue; host or cells: anesthetized rats (in vivo; hypoglossal motor nucleus / brainstem)
T1 sequence (P08909 33-460): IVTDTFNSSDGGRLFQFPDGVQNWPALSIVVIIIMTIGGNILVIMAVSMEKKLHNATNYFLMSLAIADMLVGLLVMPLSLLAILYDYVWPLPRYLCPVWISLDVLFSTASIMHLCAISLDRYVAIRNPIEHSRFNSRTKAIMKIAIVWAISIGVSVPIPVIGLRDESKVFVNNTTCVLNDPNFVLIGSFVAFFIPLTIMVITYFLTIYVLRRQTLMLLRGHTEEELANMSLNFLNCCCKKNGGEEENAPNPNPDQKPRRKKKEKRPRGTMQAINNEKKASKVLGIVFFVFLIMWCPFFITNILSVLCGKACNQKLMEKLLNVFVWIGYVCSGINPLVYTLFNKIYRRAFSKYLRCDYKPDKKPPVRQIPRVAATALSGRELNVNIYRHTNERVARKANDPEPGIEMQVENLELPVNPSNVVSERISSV

OSA patients = assay: Crossover pilot trial, lorcaserin 15 mg or placebo before bedtime for one night; polysomnography with pneumotach and oronasal mask; format: in vivo, human; conditions: single patient, hypopneas present in both conditions
Procedure: In a crossover pilot trial including 6 OSA patients, the patients were administered in random order lorcaserin 15 mg or placebo before bedtime for one night.
Patients were outfitted with the usual polysomnography equipment plus a pneumotach and oronasal mask for accurate ventilation measurements. The effect of lorcaserin on several ventilatory parameters reflecting the upper airway collapsibility and muscle activity were measured using validated algorithms.

| SMILES | genioglossus activity [1] | upper airway collapsibility [1] | ventilation during NREM sleep of a patient, lorcaserin night vs placebo (FIG. 2) (OSA patients) |
| --- | --- | --- | --- |
| COc1cc(CC(C)N)c(OC)cc1I (stereo not drawn) [DOI, 2,5-dimethoxy-4-iodoaminophentamine] | increased | reduced |  |
| C[C@H]1CNCCc2ccc(Cl)cc21 [lorcaserin, (1R)-8-chloro-1-methyl-2,3,4,5-tetrahydro-1H-3-benzazepine] |  |  | increased substantially |

— patent publication US20240226110A1, “5-HT2C AGONIST FOR USE IN TREATING CONDITIONS ASSOCIATED WITH CENTRAL HYPOVENTILATION” (APNIMED, INC. (DELAWARE), priority 2021, published 2024)
